The source of these data is PubChem BioAssay (NCI).

Some test systems named below: COLO 205 colon; EKVX NSCLC; IGROV1 ovarian; KM12 colon; OVCAR-4 ovarian; SNB-19 CNS; UACC-257 melanoma; UACC-62 melanoma; NCI-H226 lung; HOP-62 NSCLC.
Holding throughout (assay): inhibition of tumour cell growth, NCI panel, 48 h

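How tested: cells in 96-well plates exposed to compound for 48 hours at five concentrations. Here, GI50 denotes the concentration required for 50% inhibition of growth. TGI: concentration producing complete growth inhibition.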 Some results are limits rather than exact numbers.

In the case of `COc1ccc2c(c1)CCCN2c1c2ccccc2nc2ccccc12`, the GI50 is 0.269 µM in the assay on COLO 205 colon; 0.932 µM with EKVX NSCLC; 0.811 µM in the assay on IGROV1 ovarian; 0.386 µM in the assay with KM12 colon; 0.812 µM with OVCAR-4 ovarian; 0.546 µM in the assay on SNB-19 CNS. Besides, the GI50 in the assay on UACC-257 melanoma was 8.11 µM; with UACC-62 melanoma it was 0.38 µM. Also, the TGI in the assay with COLO 205 colon was 0.849 µM; with EKVX NSCLC, greater than 100 µM; with IGROV1 ovarian, 34.7 µM; in the assay on KM12 colon, 15.6 µM; in the assay on OVCAR-4 ovarian, greater than 100 µM; in the assay with SNB-19 CNS, greater than 100 µM. In addition, the TGI with UACC-257 melanoma was greater than 100 µM; with UACC-62 melanoma, 3.54 µM.

Turning to `C[C@@H]1OC(=O)N2CCCC(=C3SCCCS3)C12` (stereo partly drawn), the TGI in the assay on COLO 205 colon, in the assay on EKVX NSCLC, in the assay on IGROV1 ovarian, with KM12 colon, in the assay with NCI-H226 lung and with OVCAR-4 ovarian was greater than 100 µM in each case. The TGI in the assay on SNB-19 CNS, with UACC-257 melanoma and in the assay with UACC-62 melanoma was greater than 100 µM throughout.

As for `O=c1cc(-c2ccccc2)oc2cc(OC/C(=N/O)c3ccccc3)ccc12`, the GI50 was greater than 50 µM in the assay with COLO 205 colon; 24.8 µM in the assay with EKVX NSCLC; 22.4 µM with HOP-62 NSCLC; 13.2 µM in the assay on KM12 colon; 23.5 µM with NCI-H226 lung; 30.5 µM with OVCAR-4 ovarian. Further, the GI50 with SNB-19 CNS was 18.2 µM; in the assay with UACC-257 melanoma, greater than 50 µM; in the assay with UACC-62 melanoma, 12.7 µM. Besides, the TGI in the assay on COLO 205 colon, in the assay with EKVX NSCLC, with HOP-62 NSCLC, in the assay with KM12 colon, in the assay with NCI-H226 lung and with OVCAR-4 ovarian was greater than 50 µM each time. In addition, the TGI in the assay on SNB-19 CNS, in the assay on UACC-257 melanoma and in the assay with UACC-62 melanoma was greater than 50 µM in each case.

With `O=C(O)CCSC(=O)Nc1ccc([N+](=O)[O-])cc1`, the TGI in the assay on COLO 205 colon, with EKVX NSCLC, with HOP-62 NSCLC, in the assay with IGROV1 ovarian, in the assay on KM12 colon and with OVCAR-4 ovarian was greater than 100 µM throughout. The TGI with SNB-19 CNS and in the assay on UACC-257 melanoma was greater than 100 µM each time.

`N#CSC1CCCCNC1=O` (stereo not drawn): the TGI in the assay on COLO 205 colon worked out at 30.2 µM; in the assay with EKVX NSCLC, 37.5 µM; in the assay with HOP-62 NSCLC, 41.8 µM; with KM12 colon, 31.3 µM; in the assay on NCI-H226 lung it was 25.7 µM; in the assay on SNB-19 CNS it was 30.2 µM. Also, the TGI with UACC-257 melanoma is 34.6 µM; in the assay with UACC-62 melanoma, 29.1 µM.

Take `NC12CC3CC(C1)CC(C(=O)O)(C3)C2`: the TGI with EKVX NSCLC, with HOP-62 NSCLC, in the assay with IGROV1 ovarian, with KM12 colon, in the assay with OVCAR-4 ovarian and in the assay on SNB-19 CNS was greater than 100 µM in each case. The TGI in the assay with UACC-257 melanoma and with UACC-62 melanoma was greater than 100 µM in each case.

Consider `CC(SC(=S)N1CCOCC1)c1cc2oc(=O)n(C)c2cc1Cl` (stereo not drawn), for which the TGI in the assay with COLO 205 colon was greater than 100 µM; in the assay with EKVX NSCLC, greater than 100 µM; with HOP-62 NSCLC, greater than 100 µM; with IGROV1 ovarian, greater than 10 µM; with KM12 colon, greater than 100 µM; in the assay on OVCAR-4 ovarian, greater than 100 µM. The TGI in the assay on SNB-19 CNS, in the assay on UACC-257 melanoma and in the assay with UACC-62 melanoma was greater than 100 µM throughout.

In the case of `O=C(CC1C(=O)NN(c2ccc(Br)cc2)C1=O)c1cc(O)ccc1O` (stereo not drawn), the GI50 in the assay with COLO 205 colon is 23.3 µM; with EKVX NSCLC, 27.8 µM; in the assay with IGROV1 ovarian it was 40 µM; in the assay with KM12 colon, 9.84 µM; with NCI-H226 lung, 10.4 µM; in the assay on OVCAR-4 ovarian, 30.6 µM. The GI50 with SNB-19 CNS is 22.7 µM; in the assay on UACC-257 melanoma, 19.6 µM; in the assay with UACC-62 melanoma it was 12 µM. The TGI with COLO 205 colon was greater than 50 µM; with EKVX NSCLC it was greater than 50 µM; with IGROV1 ovarian, greater than 50 µM; in the assay with KM12 colon it was 40.6 µM; in the assay on NCI-H226 lung it was 36.9 µM; in the assay with OVCAR-4 ovarian it was greater than 50 µM. In addition, the TGI was greater than 50 µM in the assay on SNB-19 CNS, greater than 50 µM in the assay with UACC-257 melanoma and 27.7 µM with UACC-62 melanoma.

As to `CCN(CC)CCCC(C)Nc1c2ccc(Cl)cc2nc2ccc(O)cc12` (stereo not drawn), the GI50 in the assay on COLO 205 colon was 1.17 µM; in the assay on EKVX NSCLC, 2.94 µM; in the assay with HOP-62 NSCLC it was 1.49 µM; in the assay with KM12 colon, 2.39 µM; with NCI-H226 lung, 2.53 µM; with OVCAR-4 ovarian, 1.88 µM. Besides, the GI50 in the assay with SNB-19 CNS was 3.37 µM; in the assay on UACC-257 melanoma, 1.7 µM; in the assay with UACC-62 melanoma, 1.89 µM. Further, the TGI with COLO 205 colon stood at 2.63 µM; in the assay with EKVX NSCLC, 11.6 µM; in the assay on HOP-62 NSCLC it was 5.32 µM; in the assay on KM12 colon, 10.5 µM; in the assay on NCI-H226 lung, 8.99 µM; in the assay on OVCAR-4 ovarian, 4.66 µM. The TGI was determined as 16.3 µM with SNB-19 CNS, 3.31 µM in the assay on UACC-257 melanoma and 4.02 µM in the assay on UACC-62 melanoma.

As for `O=C(CC1(O)C(=O)Nc2c(Cl)ccc(Cl)c21)c1ccc(F)cc1` (stereo not drawn), the TGI with COLO 205 colon is greater than 100 µM; in the assay with EKVX NSCLC, greater than 100 µM; in the assay with HOP-62 NSCLC, greater than 100 µM; in the assay on KM12 colon, greater than 100 µM; with NCI-H226 lung, 79.6 µM; in the assay on OVCAR-4 ovarian, 97.9 µM. The TGI with SNB-19 CNS and in the assay with UACC-257 melanoma was greater than 100 µM throughout.

Regarding `NC(=O)NS(=O)(=O)c1ccc(N2N=C(C(F)(F)F)CC2c2cc(C(F)(F)F)cc(C(F)(F)F)c2)cc1` (stereo not drawn), the GI50 with COLO 205 colon is 2.96 µM; in the assay with EKVX NSCLC it was 2.82 µM; in the assay on HOP-62 NSCLC it was 6.53 µM; in the assay on KM12 colon, 1.83 µM; in the assay on NCI-H226 lung it was 7.21 µM; in the assay with OVCAR-4 ovarian it was 2.9 µM. Further, the GI50 was 8.03 µM in the assay on SNB-19 CNS, 2.58 µM in the assay with UACC-257 melanoma and 10.4 µM in the assay on UACC-62 melanoma. In addition, the TGI turned out to be 12 µM in the assay on COLO 205 colon; 11.3 µM with EKVX NSCLC; 22.4 µM with HOP-62 NSCLC; 4.65 µM with KM12 colon; 21.8 µM with NCI-H226 lung; 12.8 µM in the assay with OVCAR-4 ovarian. The TGI turned out to be 22.4 µM with SNB-19 CNS, 7.18 µM in the assay with UACC-257 melanoma and 22.7 µM with UACC-62 melanoma.
